pIC50: −log10 of the molar value.
Target: T1, full length MPS1 (Homo sapiens, UniProt P33981)
T1 sequence (P33981 1-857): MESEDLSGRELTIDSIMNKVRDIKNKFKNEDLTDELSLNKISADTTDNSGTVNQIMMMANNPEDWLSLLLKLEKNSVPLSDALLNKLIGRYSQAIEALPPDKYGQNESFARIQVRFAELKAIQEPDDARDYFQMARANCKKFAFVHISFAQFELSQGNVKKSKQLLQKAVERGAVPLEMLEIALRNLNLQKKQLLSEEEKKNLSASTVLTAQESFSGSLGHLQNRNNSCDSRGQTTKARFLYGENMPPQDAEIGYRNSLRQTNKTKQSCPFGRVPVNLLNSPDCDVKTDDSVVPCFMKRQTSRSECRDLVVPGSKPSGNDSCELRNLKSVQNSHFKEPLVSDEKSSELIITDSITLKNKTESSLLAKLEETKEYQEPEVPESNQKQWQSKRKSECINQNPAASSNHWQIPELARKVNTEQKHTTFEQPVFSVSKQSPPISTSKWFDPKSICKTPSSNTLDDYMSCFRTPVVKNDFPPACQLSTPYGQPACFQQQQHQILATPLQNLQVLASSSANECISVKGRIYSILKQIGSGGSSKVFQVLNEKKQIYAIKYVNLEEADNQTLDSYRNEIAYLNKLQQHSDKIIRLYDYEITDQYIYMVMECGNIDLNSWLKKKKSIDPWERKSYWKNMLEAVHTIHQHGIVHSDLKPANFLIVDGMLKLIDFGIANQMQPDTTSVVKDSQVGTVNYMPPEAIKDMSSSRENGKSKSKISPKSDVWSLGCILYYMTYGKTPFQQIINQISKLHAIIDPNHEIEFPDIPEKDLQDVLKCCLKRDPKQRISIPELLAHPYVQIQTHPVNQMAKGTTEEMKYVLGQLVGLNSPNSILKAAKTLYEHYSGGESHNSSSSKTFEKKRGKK
Assay: biochemical
Method: Measurement of Inhibition of MPS1 Kinase
(5 μM), ATP (10 μM), either DMSO (1% v/v) or the test compound (in the range 0.25 nM-100 μM in 1% DMSO) and assay buffer (50 mM HEPES (pH 7.0), 0.02% NaN3, 0.01% BSA, 0.1 mM Orthovandate, […], 1 μM DTT, Roche protease inhibitor). The reaction was carried out for 60 min at room temperature and stopped by the addition of buffer (10 μl) containing 20 mM EDTA, 0.05% (v/v) Brij-35, in 0.1M HEPES-buffered saline (Free acid, Sigma, UK). The plate was read on a Caliper EZ reader II (Caliper Life Sciences).
The % inhibition of the compounds is calculated relative to the means of selected control wells. […] The % inhibitions at each concentration are then fitted to a 4 parameter logistic fit: y=(a+((b−a)/(1+((c/x^d)))) where a=asym min, b=asym max, c=IC50 and d=hill coefficient

| SMILES | pIC50 |
| --- | --- |
| Cn1cc(-c2cc3cnc(Nc4ccc(C(=O)N5CC(F)(F)C5)cc4Cl)cc3[nH]2)cn1 [Example 153, (3-Chloro-4-((2-(1-methyl-1H-pyrazol-4-yl)-1H-pyrrolo[3,2-c]pyridin-6-yl)amino)phenyl)(3,3-difluoroazetidin-1-yl)methanone] | 7.68 |
| Cc1ncc(-c2ccc(Nc3cc4c(cn3)cc(-c3cnn(C)c3)n4C(=O)OC3CCC3)c(Cl)c2)n1C [Example 85] | 8.40 |
| COc1cc(C(=O)N2CCOCC2)ccc1Nc1cc2c(cn1)cc(-c1cnn(C)c1)n2C(=O)OC(C)(C)C [Example 10] | 8.30 |
| Cn1cc(-c2cc3cnc(Nc4cccc(OCC#N)c4)cc3[nH]2)cn1 [Example 141, 2-(3-(2-(1-Methyl-1H-pyrazol-4-yl)-1H-pyrrolo[3,2-c]pyridin-6-ylamino)phenoxy)acetonitrile] | 6.88 |
| Cc1ncc(-c2ccc(Nc3cc4c(cn3)cc(-c3cnn(C)c3)n4CC3CC3)c(Cl)c2)n1C [Example 105] | 7.54 |
| Cn1cc(-c2[nH]c3cc(Nc4ccccc4Cl)ncc3c2Cl)cn1 [Example 193, 3-Chloro-N-(2-chlorophenyl)-2-(1-methyl-1H-pyrazol-4-yl)-1H-pyrrolo[3,2-c]pyridin-6-amine] | 6.38 |
| Cc1ncc(-c2ccc(Nc3cc4c(cn3)cc(-c3cnn(C)c3)n4C(=O)OC(C)C)cc2)n1C [Example 108] | 8.70 |
| Cn1cc(-c2cc3cnc(Nc4ccccc4C#N)cc3n2C(=O)OC(C)(C)C)cn1 [Example 54] | 7.49 |
| COc1cc(C(=O)N2CCS(=O)(=O)CC2)ccc1Nc1cc2[nH]c(-c3cnn(C)c3)cc2cn1 [Example 115, (3-Methoxy-4-(2-(1-methyl-1H-pyrazol-4-yl)-1H-pyrrolo[3,2-c]pyridin-6-ylamino)phenyl)(thiomorpholino)methanone-S,S-dioxide] | 8.15 |
| Cc1nn(C)cc1-c1ccc(Nc2cc3c(cn2)cc(-c2cnn(C)c2)n3C(=O)OC(C)(C)C)c(Cl)c1 [Example 21] | 8.15 |
| COCCn1c(-c2cnn(C)c2)cc2cnc(Nc3ccc(-c4cnc(C)n4C)cc3Cl)cc21 [Example 104] | 7.08 |
| CN(C)C(=O)c1cc(Cl)c(Nc2cc3[nH]c(-c4cnn(C)c4)cc3cn2)c(Cl)c1 [Example 121, 3,5-Dichloro-N,N-dimethyl-4-(2-(1-methyl-1H-pyrazol-4-yl)-1H-pyrrolo[3,2-c]pyridin-6-ylamino)benzamide] | 7.04 |
| COc1ccc(Nc2cc3[nH]c(-c4cn[nH]c4)cc3cn2)c(OC)c1 [Example 160, N-(2,4-Dimethoxyphenyl)-2-(1H-pyrazol-4-yl)-1H-pyrrolo[3,2-c]pyridin-6-amine] | 7.72 |
| COc1ncccc1Nc1cc2[nH]c(-c3cnn(C)c3)cc2cn1 [Example 112, N-(2-Methoxypyridin-3-yl)-2-(1-methyl-1H-pyrazol-4-yl)-1H-pyrrolo[3,2-c]pyridin-6-amine] | 7.68 |
| COc1cc(C(=O)N2CC(OC)C2)ccc1Nc1cc2c(cn1)cc(-c1cnn(C)c1)n2C(=O)OC(C)(C)C [Example 12] | 8.15 |
| Cn1cc(-c2cc3cnc(Nc4ccc(N5CCCC5=O)cc4Cl)cc3[nH]2)cn1 [Example 136, 1-(3-chloro-4-((2-(1-methyl-1H-pyrazol-4-yl)-1H-pyrrolo[3,2-c]pyridin-6-yl)amino)phenyl)pyrrolidin-2-one] | 7.74 |

Continued by rising pIC50, values first:

| pIC50 | SMILES |
| --- | --- |
| 6.30 | COc1ccc(C(=O)N(C)C)cc1Nc1cc2[nH]c(-c3cnn(C)c3)cc2cn1 [Example 114, 4-Methoxy-N,N-dimethyl-3-(2-(1-methyl-1H-pyrazol-4-yl)-1H-pyrrolo[3,2-c]pyridin-6-ylamino)benzamide] |
| 6.79 | COc1cc(C(F)(F)F)ccc1Nc1cc2[nH]c(-c3cnn(C)c3)cc2cn1 [Example 156, N-(2-Methoxy-4-(trifluoromethyl)phenyl)-2-(1-methyl-1H-pyrazol-4-yl)-1H-pyrrolo[3,2-c]pyridin-6-amine] |
| 6.81 | Cn1cc(-c2cc3cnc(Nc4cccc(OCC#N)c4)cc3n2C(=O)OC(C)(C)C)cn1 [Example 36] |
| 6.89 | Cn1cc(-c2ccc(Nc3cc4[nH]c(-c5cnn(C)c5)c(Cl)c4cn3)c(Cl)c2)cn1 [Example 194, 3-Chloro-N-(2-chloro-4-(1-methyl-1H-pyrazol-4-yl)phenyl)-2-(1-methyl-1H-pyrazol-4-yl)-1H-pyrrolo[3,2-c]pyridin-6-amine] |
| 7.26 | Cn1cc(-c2cc3cnc(Nc4ccc(-n5cncn5)cc4Cl)cc3[nH]2)cn1 [Example 129, N-(2-Chloro-4-(1H-1,2,4-triazol-1-yl)phenyl)-2-(1-methyl-1H-pyrazol-4-yl)-1H-pyrrolo[3,2-c]pyridin-6-amine] |
| 7.33 | CN(C)C(=O)c1ccc(Nc2cc3c(cn2)cc(-c2cnn(C)c2)n3CC2CCCC2)c(Cl)c1 [Example 64, 3-Chloro-4-(1-(cyclopentylmethyl)-2-(1-methyl-1H-pyrazol-4-yl)-1H-pyrrolo[3,2-c]pyridin-6-ylamino)-N,N-dimethylbenzamide] |
| 7.37 | Cc1ccc(-n2c(-c3cnn(C)c3)cc3cnc(Nc4ccc(C(=O)N(C)C)cc4Cl)cc32)nc1 [Example 92] |
| 7.38 | COc1cc(C(=O)NC2CCN(C)CC2)ccc1Nc1cc2[nH]c(-c3cnn(C)c3)cc2cn1 [Example 111, 3-Methoxy-4-((2-(1-methyl-1H-pyrazol-4-yl)-1H-pyrrolo[3,2-c]pyridin-6-yl)amino)-N-(1-methylpiperidin-4-yl)benzamide] |
| 7.66 | Cn1cc(-c2cc3cnc(Nc4ccc(-c5ccnn5C)cc4Cl)cc3[nH]2)cn1 [Example 149, N-(2-Chloro-4-(1-methyl-1H-pyrazol-5-yl)phenyl)-2-(1-methyl-1H-pyrazol-4-yl)-1H-pyrrolo[3,2-c]pyridin-6-amine] |
| 7.72 | COCCNC(=O)c1ccc(Nc2cc3[nH]c(-c4cnn(C)c4)cc3cn2)c(OC)c1 [Example 119, 3-Methoxy-N-(2-methoxyethyl)-4-(2-(1-methyl-1H-pyrazol-4-yl)-1H-pyrrolo[3,2-c]pyridin-6-ylamino)benzamide] |
| 7.80 | COc1cc(CN2CCCC2)ccc1Nc1cc2c(cn1)cc(-c1cnn(C)c1)n2C(=O)OC(C)(C)C [Example 33] |
| 7.96 | Cc1oncc1-c1ccc(Nc2cc3c(cn2)cc(-c2cnn(C)c2)n3C(=O)OC(C)(C)C)c(Cl)c1 [Example 23] |
| 8.05 | COCCOc1ccc(Nc2cc3[nH]c(-c4cn[nH]c4)cc3cn2)cc1 [Example 170, N-(4-(2-Methoxyethoxy)phenyl)-2-(1H-pyrazol-4-yl)-1H-pyrrolo[3,2-c]pyridin-6-amine] |
| 8.05 | COCCNC(=O)c1ccc(Nc2cc3c(cn2)cc(-c2cnn(C)c2)n3C(=O)OC(C)(C)C)c(OC)c1 [Example 11] |
| 8.10 | COc1cc(CN(C)C)ccc1Nc1cc2c(cn1)cc(-c1cnn(C)c1)n2C(=O)OC(C)(C)C [Example 35] |
| 8.15 | COc1cc(C(=O)N2CC(OC)C2)ccc1Nc1cc2[nH]c(-c3cnn(C)c3)cc2cn1 [Example 120, (3-Methoxy-4-(2-(1-methyl-1H-pyrazol-4-yl)-1H-pyrrolo[3,2-c]pyridin-6-ylamino)phenyl)(3-methoxyazetidin-1-yl)methanone] |
| 8.15 | COc1cc(OC2CCN(C)CC2)ccc1Nc1cc2[nH]c(-c3cn[nH]c3)cc2cn1 [Example 166, N-(2-Methoxy-4-(1-methylpiperidin-4-yloxy)phenyl)-2-(1H-pyrazol-4-yl)-1H-pyrrolo[3,2-c]pyridin-6-amine] |
| 8.30 | Cc1ncn(C)c1-c1ccc(Nc2cc3c(cn2)cc(-c2cnn(C)c2)n3C(=O)OC(C)(C)C)c(Cl)c1 [Example 63] |
| 8.30 | CN(C)C(=O)c1ccc(Nc2cc3[nH]c(-c4cnco4)cc3cn2)c(Cl)c1 [Example 180, 3-Chloro-N,N-dimethyl-4-(2-(oxazol-5-yl)-1H-pyrrolo[3,2-c]pyridin-6-ylamino)benzamide] |
| 8.30 | Cc1ncc(-c2ccc(Nc3cc4c(cn3)cc(-c3cnn(C)c3)n4C(=O)OC(C)(C)C)c(Cl)c2)n1C [Example 47] |
| 8.52 | COc1cc(C(=O)N2CC(OC)C2)ccc1Nc1cc2[nH]c(-c3cnco3)cc2cn1 [Example 179, (3-Methoxy-4-(2-(oxazol-5-yl)-1H-pyrrolo[3,2-c]pyridin-6-ylamino)phenyl)(3-methoxyazetidin-1-yl)methanone] |
